Patent publication US20230173075A1, “ENCAPSULATED COMPOSITIONS AND USE OF OCTENYLSUCCINIC ANHYDRIDE STARCH AS EMULSIFYING AGENT” (Kansas State University Research Foundation, priority 2020, published 2023)

How the values were obtained:
[1] = X-ray diffraction (XRD) physical state; format: physicochemical; settings: Example 2 (CU), fresh
Description: The physical state of the spray-dried emulsions samples was obtained with an X-ray diffractometer (APD 3520, Philips, Netherlands). The instrument was operated at 35 kV, 20 mA with Cu-Kα radiation, a theta-compensating slit, and a diffracted beam monochromator. Data were recorded between the diffraction angles (2θ) of 2° and 35°. Differential scanning calorimetry (DSC) measurement of spray dried drug powder was studied with the TA instrument Q200 V24.4 (New Castle, Del., USA) in a range of −20 to 120° C. under nitrogen flow of 70 mL/min. The spray-dried emulsions powder (3-5 mg) was accurately weighed into DSC stainless steel pan. An empty pan was used as a reference. The heating rate of 10° C./min was used.
The physical state of the spray-dried emulsions samples was obtained with an X-ray diffractometer (APD 3520, Philips, Netherlands). The instrument was operated at 35 kV, 20 mA with Cu-Kα radiation, a theta-compensating slit, and a diffracted beam monochromator. Data were recorded between the diffraction angles (2θ) of 2° and 35°.

[2] = FF in a hard gelatin capsule, launched 1975; cited from earlier work

Row | Structure (SMILES) | XRD physical state [1] | maximum bioavailability [2] [%]
1 | COc1cc(/C=C/C(=O)CC(=O)/C=C/c2ccc(O)c(OC)c2)ccc1O [CU, Curcumin] | crystalline form | 
2 | CC(C)OC(=O)C(C)(C)Oc1ccc(C(=O)c2ccc(Cl)cc2)cc1 [FF, Fenofibrate] |  | 60
